According to PubChem BioAssay AID2060896 (Molecular Pharmacology Branch, DTP, NCI, 2025):

Tested on: 941728-121-R-J1-PDC complex spheroid viability
Experiment: Anticancer human tumor 941728-121-R-J1-PDC patient-derived lung adenocarcinoma cell line growth inhibition [RAS]
Details: for IC50: curve of first compound; for viability, T/C: stronger effect = lower value
In short: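 Tumour cells grown as complex spheroids with HUVEC endothelial cells and mesenchymal stem cells, treated with RAS pathway inhibitor combinations. Each agent spans half-log steps from near clinical Cmax, or 10 microM where Cmax is unknown.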

[1] = second compound 0.0316 µM, first compound 0.0316 µM
[2] = second compound 0.0316 µM, first compound 0.1 µM
[3] = second compound 0.0316 µM, first compound 0.316 µM
[4] = second compound 0.0316 µM, first compound 1 µM
[5] = second compound 0.1 µM, first compound 0.0316 µM
[6] = second compound 0.1 µM, first compound 0.1 µM
[7] = second compound 0.1 µM, first compound 0.316 µM
[8] = second compound 0.1 µM, first compound 1 µM
[9] = second compound 0.316 µM, first compound 0.0316 µM
[10] = second compound 0.316 µM, first compound 0.1 µM
[11] = second compound 0.316 µM, first compound 0.316 µM
[12] = second compound 0.316 µM, first compound 1 µM
[13] = second compound 1 µM, first compound 0.0316 µM
[14] = second compound 1 µM, first compound 0.1 µM
[15] = second compound 1 µM, first compound 0.316 µM
[16] = second compound 1 µM, first compound 1 µM
[17] = second compound 3.16 µM, first compound 0.0316 µM
[18] = second compound 3.16 µM, first compound 0.1 µM
[19] = second compound 3.16 µM, first compound 0.316 µM
[20] = second compound 3.16 µM, first compound 1 µM
[21] = second compound 10 µM, first compound 0.0316 µM
[22] = second compound 10 µM, first compound 0.1 µM
[23] = second compound 10 µM, first compound 0.316 µM
[24] = second compound 10 µM, first compound 1 µM
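Further: spheroids exposed to compounds for 7 days before readout.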
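Wherever viability, T/C is given: 100% = DMSO vehicle control viability.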

For `Nc1ccn(C2OC(CO)C(O)C2(F)F)c(=O)n1` (configuration not stated) + C#Cc1c(F)ccc2cc(O)cc(-c3ncc4c(N5CC6CCC(C5)N6)nc(OCC56CCCN5CC(F)C6)nc4c3F)c12, the IC50 (second compound 0.0316 µM) was 22.3 nM, the IC50 (second compound 0.1 µM) was 15.5 nM and the IC50 (second compound 0.316 µM) was 5.51 nM. The IC50 (second compound 1 µM) was less than 3.16 nM, the IC50 (second compound 3.16 µM) was less than 3.16 nM and the IC50 (second compound 10 µM) was less than 3.16 nM. It also gave a viability, T/C (second compound 0.0316 µM, first compound 0.00316 µM) of 71.5%, a viability, T/C (second compound 0.0316 µM, first compound 0.01 µM) of 54% and a viability, T/C [1] of 49.6%. For the same molecule, the viability, T/C [2] was 43.4%, the viability, T/C [3] was 46.3% and the viability, T/C [4] was 42.6%. The viability, T/C (second compound 0.1 µM, first compound 0.00316 µM) was 72.8%, the viability, T/C (second compound 0.1 µM, first compound 0.01 µM) was 55.1% and the viability, T/C [5] was 41.7%. For the same molecule, the viability, T/C [6] was 38.3%, the viability, T/C [7] was 34.5% and the viability, T/C [8] was 38.2%. The viability, T/C (second compound 0.316 µM, first compound 0.00316 µM) was 51%, the viability, T/C (second compound 0.316 µM, first compound 0.01 µM) was 52.6% and the viability, T/C [9] was 38.3%. For the same molecule, the viability, T/C [10] was 35.5%, the viability, T/C [11] was 37.6% and the viability, T/C [12] was 33.1%. For the same molecule, the viability, T/C (second compound 1 µM, first compound 0.00316 µM) was 33.9%, the viability, T/C (second compound 1 µM, first compound 0.01 µM) was 31.9% and the viability, T/C [13] was 31.6%. For the same molecule, the viability, T/C [14] was 33.2%, the viability, T/C [15] was 36.8% and the viability, T/C [16] was 30.3%. The viability, T/C (second compound 3.16 µM, first compound 0.00316 µM) was 30.4%, the viability, T/C (second compound 3.16 µM, first compound 0.01 µM) was 28.7% and the viability, T/C [17] was 28.5%. The viability, T/C [18] was 28.3%, the viability, T/C [19] was 26.1% and the viability, T/C [20] was 27.7%. The viability, T/C (second compound 10 µM, first compound 0.00316 µM) was 23.6%, the viability, T/C (second compound 10 µM, first compound 0.01 µM) was 21.3% and the viability, T/C [21] was 20.8%. It also gave a viability, T/C [22] of 18%, a viability, T/C [23] of 20.2% and a viability, T/C [24] of 20.1%.

`O=C(c1ccc(F)c(F)c1Nc1ccc(I)cc1F)N1CC(O)([C@@H]2CCCCN2)C1` was tested, and the viability, T/C (compound 0.00316 µM) was 80.3% [middle of 4 runs], the viability, T/C (compound 0.01 µM) was 69% [middle of 4 runs] and the viability, T/C (compound 0.1 µM) was 42.2% [middle of 4 runs]. The viability, T/C (compound 0.316 µM) was 32.5% [middle of 4 runs] and the viability, T/C (compound 1 µM) was 27.8% [middle of 4 runs].

With `Cc1nc(N2CCC3(CC2)COC(C)C3N)c(CO)nc1Sc1ccnc(N)c1Cl` (configuration not stated) + CCn1c(-c2cccnc2C(C)OC)c2c3cc(ccc31)N1CCOC(CC(NC(=O)C(C(C)C)N(C)C(=O)C3(F)CCN(C(=O)C#CC(C)(C)N(C)C)CC3)C(=O)N3CCCC(N3)C(=O)OCC(C)(C)C2)C1 the IC50 (second compound 0.000949 µM) was less than 31.6 nM, the IC50 (second compound 0.003 µM) was less than 31.6 nM and the IC50 (second compound 0.00949 µM) was less than 31.6 nM. It also gave an IC50 (second compound 0.03 µM) of less than 31.6 nM, an IC50 (second compound 0.0949 µM) of less than 31.6 nM and an IC50 (second compound 0.3 µM) of less than 31.6 nM. The viability, T/C (second compound 0.000949 µM, first compound 0.0316 µM) was 21.6%, the viability, T/C (second compound 0.000949 µM, first compound 0.1 µM) was 20.3% and the viability, T/C (second compound 0.000949 µM, first compound 0.316 µM) was 13.3%. It also gave a viability, T/C (second compound 0.000949 µM, first compound 1 µM) of 18.1%, a viability, T/C (second compound 0.000949 µM, first compound 3.16 µM) of 19.1% and a viability, T/C (second compound 0.000949 µM, first compound 10 µM) of 14.4%. It also gave a viability, T/C (second compound 0.003 µM, first compound 0.0316 µM) of 21.7%, a viability, T/C (second compound 0.003 µM, first compound 0.1 µM) of 20.4% and a viability, T/C (second compound 0.003 µM, first compound 0.316 µM) of 14.2%. The viability, T/C (second compound 0.003 µM, first compound 1 µM) was 17.5%, the viability, T/C (second compound 0.003 µM, first compound 3.16 µM) was 18.1% and the viability, T/C (second compound 0.003 µM, first compound 10 µM) was 13.7%. It also gave a viability, T/C (second compound 0.00949 µM, first compound 0.0316 µM) of 20.1%, a viability, T/C (second compound 0.00949 µM, first compound 0.1 µM) of 16.8% and a viability, T/C (second compound 0.00949 µM, first compound 0.316 µM) of 16.8%. For the same molecule, the viability, T/C (second compound 0.00949 µM, first compound 1 µM) was 18.4%, the viability, T/C (second compound 0.00949 µM, first compound 3.16 µM) was 15.7% and the viability, T/C (second compound 0.00949 µM, first compound 10 µM) was 15.6%. For the same molecule, the viability, T/C (second compound 0.03 µM, first compound 0.0316 µM) was 19.7%, the viability, T/C (second compound 0.03 µM, first compound 0.1 µM) was 19% and the viability, T/C (second compound 0.03 µM, first compound 0.316 µM) was 17.5%. It also gave a viability, T/C (second compound 0.03 µM, first compound 1 µM) of 15.7%, a viability, T/C (second compound 0.03 µM, first compound 3.16 µM) of 13.1% and a viability, T/C (second compound 0.03 µM, first compound 10 µM) of 17.6%. The viability, T/C (second compound 0.0949 µM, first compound 0.0316 µM) was 21.4%, the viability, T/C (second compound 0.0949 µM, first compound 0.1 µM) was 20.7% and the viability, T/C (second compound 0.0949 µM, first compound 0.316 µM) was 19.9%. For the same molecule, the viability, T/C (second compound 0.0949 µM, first compound 1 µM) was 17.3%, the viability, T/C (second compound 0.0949 µM, first compound 3.16 µM) was 15.2% and the viability, T/C (second compound 0.0949 µM, first compound 10 µM) was 19.6%. For the same molecule, the viability, T/C (second compound 0.3 µM, first compound 0.0316 µM) was 22.1%, the viability, T/C (second compound 0.3 µM, first compound 0.1 µM) was 20.9% and the viability, T/C (second compound 0.3 µM, first compound 0.316 µM) was 20.6%. For the same molecule, the viability, T/C (second compound 0.3 µM, first compound 1 µM) was 18.3%, the viability, T/C (second compound 0.3 µM, first compound 3.16 µM) was 18.8% and the viability, T/C (second compound 0.3 µM, first compound 10 µM) was 23.2%.

`Cc1nc(N2CCC3(CC2)COC(C)C3N)c(CO)nc1Sc1ccnc(N)c1Cl` (configuration not stated) + C#Cc1c(F)ccc2cc(O)cc(-c3ncc4c(N5CC6CCC(C5)N6)nc(OCC56CCCN5CC(F)C6)nc4c3F)c12 showed an IC50 (second compound 0.0316 µM) of less than 31.6 nM, an IC50 (second compound 0.1 µM) of less than 31.6 nM and an IC50 (second compound 0.316 µM) of less than 31.6 nM. It also gave an IC50 (second compound 1 µM) of less than 31.6 nM, an IC50 (second compound 3.16 µM) of less than 31.6 nM and an IC50 (second compound 10 µM) of less than 31.6 nM. It also gave a viability, T/C [1] of 50.4%, a viability, T/C [2] of 42.5% and a viability, T/C [3] of 37.8%. The viability, T/C [4] was 33.5%, the viability, T/C (second compound 0.0316 µM, first compound 3.16 µM) was 34% and the viability, T/C (second compound 0.0316 µM, first compound 10 µM) was 36.8%. The viability, T/C [5] was 42.8%, the viability, T/C [6] was 37.8% and the viability, T/C [7] was 33.1%. The viability, T/C [8] was 31.7%, the viability, T/C (second compound 0.1 µM, first compound 3.16 µM) was 33% and the viability, T/C (second compound 0.1 µM, first compound 10 µM) was 35.4%. The viability, T/C [9] was 37.8%, the viability, T/C [10] was 34.2% and the viability, T/C [11] was 35.7%. For the same molecule, the viability, T/C [12] was 29.1%, the viability, T/C (second compound 0.316 µM, first compound 3.16 µM) was 32% and the viability, T/C (second compound 0.316 µM, first compound 10 µM) was 31%. For the same molecule, the viability, T/C [13] was 30.2%, the viability, T/C [14] was 32.4% and the viability, T/C [15] was 29.9%. The viability, T/C [16] was 27.9%, the viability, T/C (second compound 1 µM, first compound 3.16 µM) was 30.5% and the viability, T/C (second compound 1 µM, first compound 10 µM) was 32.3%. It also gave a viability, T/C [17] of 28.8%, a viability, T/C [18] of 29.1% and a viability, T/C [19] of 25.7%. The viability, T/C [20] was 23.1%, the viability, T/C (second compound 3.16 µM, first compound 3.16 µM) was 25.1% and the viability, T/C (second compound 3.16 µM, first compound 10 µM) was 26.2%. For the same molecule, the viability, T/C [21] was 20.1%, the viability, T/C [22] was 21.4% and the viability, T/C [23] was 19.9%. It also gave a viability, T/C [24] of 19.6%, a viability, T/C (second compound 10 µM, first compound 3.16 µM) of 21.3% and a viability, T/C (second compound 10 µM, first compound 10 µM) of 20.8%.

With `C=CC(=O)Nc1cc(Nc2nccc(-c3cn(C)c4ccccc34)n2)c(OC)cc1N(C)CCN(C)C` the viability, T/C (compound 0.00316 µM) was 98.4% [middle of 4 runs], the viability, T/C (compound 0.01 µM) was 82.8% [middle of 4 runs] and the viability, T/C (compound 0.0316 µM) was 68.2% [middle of 4 runs]. For the same molecule, the viability, T/C (compound 0.1 µM) was 67.7% [middle of 4 runs], the viability, T/C (compound 0.316 µM) was 55.6% [middle of 4 runs] and the viability, T/C (compound 1 µM) was 47.3% [middle of 4 runs].
